# Calls of active or inactive are those of the source.
# How the values were obtained:
# Paired box protein Pax-8 = Paired box protein Pax-8 (Homo sapiens, UniProt Q06710); assay: inhibitors of PAX8-driven TPO luciferase reporter, dose response, RMG-I cells, cherry-pick (AID 687027); assay type: functional, cell-based;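 also: luciferase reporter driven by Pax8 target thyroperoxidase promoter measured by SteadyGlo luminescence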
# Leucine aminopeptidase = target: T1, Leucine aminopeptidase (Plasmodium falciparum 3D7, UniProt Q8IL11); assay: P. falciparum M17LAP inhibitors, primary screen, biochemical, fluorogenic H-Leu-NHMec substrate, 1536-well (AID 1619); assay type: functional
# T1 sequence (Q8IL11 whole entry): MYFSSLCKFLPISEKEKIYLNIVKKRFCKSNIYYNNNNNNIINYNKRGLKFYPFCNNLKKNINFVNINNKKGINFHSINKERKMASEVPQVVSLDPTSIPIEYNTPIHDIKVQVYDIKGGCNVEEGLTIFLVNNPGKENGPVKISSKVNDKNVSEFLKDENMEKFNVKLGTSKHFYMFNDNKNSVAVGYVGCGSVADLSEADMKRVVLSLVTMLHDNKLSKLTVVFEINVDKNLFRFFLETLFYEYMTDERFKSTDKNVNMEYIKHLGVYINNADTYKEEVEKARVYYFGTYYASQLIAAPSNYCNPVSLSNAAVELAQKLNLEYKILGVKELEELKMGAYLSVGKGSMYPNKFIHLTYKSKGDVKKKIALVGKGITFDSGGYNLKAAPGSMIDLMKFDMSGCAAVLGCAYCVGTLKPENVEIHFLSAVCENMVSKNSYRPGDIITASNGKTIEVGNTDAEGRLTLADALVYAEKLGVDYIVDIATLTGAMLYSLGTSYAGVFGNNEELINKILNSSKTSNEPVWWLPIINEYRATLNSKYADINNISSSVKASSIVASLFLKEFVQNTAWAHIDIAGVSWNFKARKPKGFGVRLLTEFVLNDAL
# [1] = target: T2, Heat shock factor protein 1 (Mus musculus, UniProt P38532); assay: inhibition of MG132-induced HSE-luciferase signal, confirmation, cell-based, NIH3T3, luminescence, dose retest (AID 2382); assay type: functional;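 also: NIH3T3 fibroblasts with HSF1-driven luciferase reporter stressed by proteasome inhibitor MG132; luminescence from HSF1-driven luciferase expression after 8 hours of MG132 stress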
# T2 sequence (P38532 whole entry): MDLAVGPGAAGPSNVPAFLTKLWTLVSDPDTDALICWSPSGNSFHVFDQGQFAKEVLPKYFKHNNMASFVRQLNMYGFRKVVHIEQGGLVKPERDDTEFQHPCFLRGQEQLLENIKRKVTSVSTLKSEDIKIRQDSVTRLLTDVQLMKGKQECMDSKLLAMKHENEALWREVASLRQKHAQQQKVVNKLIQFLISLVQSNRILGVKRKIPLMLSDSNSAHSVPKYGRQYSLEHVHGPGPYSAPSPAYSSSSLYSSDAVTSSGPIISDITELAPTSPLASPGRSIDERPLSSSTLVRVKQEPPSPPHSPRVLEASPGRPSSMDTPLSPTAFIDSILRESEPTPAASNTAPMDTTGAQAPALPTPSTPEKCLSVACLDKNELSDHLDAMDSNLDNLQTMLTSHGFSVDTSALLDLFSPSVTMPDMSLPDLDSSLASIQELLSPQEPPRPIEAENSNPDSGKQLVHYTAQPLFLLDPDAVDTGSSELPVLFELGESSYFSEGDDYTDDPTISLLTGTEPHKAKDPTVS
# [2] = growth suppression of PTEN-null colon cells, dose response, cell-based, HCT116 PTEN knockout (AID 1047); assay type: functional;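 also: HCT116 colon tumor cells with PTEN knocked out; cells exposed to compound for 60 hours before readout; potency for loss of cell viability measured by luminescence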
# [3] = growth suppression of beta-catenin-knockout colon cells, dose response, cell-based, HCT116, human colon tumor (AID 1045); assay type: functional;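 also: HCT116 colon tumor cells with beta catenin knocked out; cells exposed to compound for 60 hours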
# [4] = cytotoxicity toward DRD oncogenic fibroblasts, dose response, cell-based, non-viral oncogenic, luminescence (AID 1934); assay type: functional; conditions: Homo sapiens
# BJ [5] = assay: cytotoxicity toward BJ-TERT fibroblasts, dose response, cell-based, RAS-independent, luminescence (AID 1933); assay type: functional; conditions: Homo sapiens
# BJ [6] = assay: cells; assay type: functional, cell-based; conditions: Homo sapiens
# BJ [7] = assay: cytotoxicity toward BJ-TERT-LT-ST fibroblasts, dose response, cell-based, RAS-independent, luminescence (AID 1935); assay type: functional; conditions: Homo sapiens;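 also: BJ fibroblasts immortalized with TERT plus LT and ST oncogenes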
# [8] = target: T3, Rac GTPase-activating protein 1 (Homo sapiens, UniProt Q9H0H5); assay: MgcRacGAP GTPase-activating activity inhibitors, confirmation, biochemical, ADP Hunter fluorescence, primary and confirmatory (AID 624330); assay type: functional
# T3 sequence (Q9H0H5 whole entry): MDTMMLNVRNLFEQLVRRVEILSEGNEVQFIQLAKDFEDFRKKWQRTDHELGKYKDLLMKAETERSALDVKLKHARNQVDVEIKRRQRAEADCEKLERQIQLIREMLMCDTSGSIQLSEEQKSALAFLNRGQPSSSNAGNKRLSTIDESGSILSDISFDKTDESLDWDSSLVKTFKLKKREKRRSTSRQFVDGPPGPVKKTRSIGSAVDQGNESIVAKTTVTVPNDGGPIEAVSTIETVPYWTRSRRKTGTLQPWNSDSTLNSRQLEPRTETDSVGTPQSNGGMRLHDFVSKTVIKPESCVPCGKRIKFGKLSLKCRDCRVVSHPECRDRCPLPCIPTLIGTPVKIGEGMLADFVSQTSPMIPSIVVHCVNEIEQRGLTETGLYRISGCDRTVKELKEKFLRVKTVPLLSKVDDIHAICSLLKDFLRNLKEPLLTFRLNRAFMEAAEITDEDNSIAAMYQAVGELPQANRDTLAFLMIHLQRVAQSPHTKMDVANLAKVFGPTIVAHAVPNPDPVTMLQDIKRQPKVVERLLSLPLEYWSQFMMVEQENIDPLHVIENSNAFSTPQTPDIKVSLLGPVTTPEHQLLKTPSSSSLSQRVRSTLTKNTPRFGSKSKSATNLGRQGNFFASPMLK
# Streptococcus = assay: Group A Streptococcus viability loss, dose response, counter-screen for streptokinase expression inhibitor project, luminescence, BacTiterGlo (AID 1915); assay type: functional, organism-based;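 also: potency for reduction of bacterial viability or growth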
# Streptokinase A = target: T4, Streptokinase A (Streptococcus pyogenes serotype M1, UniProt P10520); assay: S. pyogenes streptokinase expression inhibitors, potency, dose response, plasminogen activation absorbance, OD405 (AID 1914); assay type: functional, Streptococcus pyogenes M1 GAS;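 also: secreted streptokinase activity via plasminogen activation per viability signal from cell pellet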
# T4 sequence (P10520 whole entry): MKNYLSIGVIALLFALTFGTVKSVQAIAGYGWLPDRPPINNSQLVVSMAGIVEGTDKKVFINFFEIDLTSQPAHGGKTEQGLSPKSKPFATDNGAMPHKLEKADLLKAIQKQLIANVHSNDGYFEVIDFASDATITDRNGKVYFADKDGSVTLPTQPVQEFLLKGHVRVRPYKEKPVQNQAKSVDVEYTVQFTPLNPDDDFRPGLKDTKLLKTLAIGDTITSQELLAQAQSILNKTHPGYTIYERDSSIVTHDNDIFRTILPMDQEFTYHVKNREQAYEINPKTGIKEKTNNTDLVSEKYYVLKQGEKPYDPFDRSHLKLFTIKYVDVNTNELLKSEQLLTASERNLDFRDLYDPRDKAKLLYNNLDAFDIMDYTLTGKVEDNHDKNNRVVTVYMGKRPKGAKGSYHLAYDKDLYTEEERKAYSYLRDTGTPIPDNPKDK
# [9] = test system: Streptococcus sp. 'group A'; assay: growth inhibition of control SK(-) GAS strain, dose response, counter-screen for streptokinase expression inhibitor project, luminescence, kanamycin, BacTiterGlo, confirmation (AID 1900); assay type: functional, organism-based
# [10] = target: FAD-linked sulfhydryl oxidase ALR (Homo sapiens, UniProt P55789); assay: inhibitors of human ALR sulfhydryl oxidase, dose response, biochemical, H2O2 detection, luminescence, cherry-pick (AID 493248)
# [11] = Luminescence Cell-Based Dose Retest to Confirm Inhibitors of Cancer Stem Cells. [Related pubchem assays (depositor defined):AID2717, AID2721]; assay type: functional; conditions: Homo sapiens
# Cytochrome P450 2C9 = Cytochrome P450 2C9 (Homo sapiens, UniProt P11712)
# Chain of Cytochrome P450 2C9 (P11712 whole entry): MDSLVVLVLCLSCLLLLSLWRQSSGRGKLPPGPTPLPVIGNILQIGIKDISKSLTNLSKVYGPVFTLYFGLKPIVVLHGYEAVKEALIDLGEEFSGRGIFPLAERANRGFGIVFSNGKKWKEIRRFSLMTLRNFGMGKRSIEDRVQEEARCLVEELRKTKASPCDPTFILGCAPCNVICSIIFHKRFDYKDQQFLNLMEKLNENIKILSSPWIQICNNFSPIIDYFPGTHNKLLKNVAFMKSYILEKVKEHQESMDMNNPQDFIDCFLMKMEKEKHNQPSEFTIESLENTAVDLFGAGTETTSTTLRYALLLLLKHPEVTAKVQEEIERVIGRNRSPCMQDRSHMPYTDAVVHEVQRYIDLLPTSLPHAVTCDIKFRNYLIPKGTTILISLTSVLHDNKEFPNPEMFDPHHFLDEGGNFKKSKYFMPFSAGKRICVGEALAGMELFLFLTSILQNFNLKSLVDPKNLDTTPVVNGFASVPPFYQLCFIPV
# Chain of Paired box protein Pax-8 (Q06710 whole entry): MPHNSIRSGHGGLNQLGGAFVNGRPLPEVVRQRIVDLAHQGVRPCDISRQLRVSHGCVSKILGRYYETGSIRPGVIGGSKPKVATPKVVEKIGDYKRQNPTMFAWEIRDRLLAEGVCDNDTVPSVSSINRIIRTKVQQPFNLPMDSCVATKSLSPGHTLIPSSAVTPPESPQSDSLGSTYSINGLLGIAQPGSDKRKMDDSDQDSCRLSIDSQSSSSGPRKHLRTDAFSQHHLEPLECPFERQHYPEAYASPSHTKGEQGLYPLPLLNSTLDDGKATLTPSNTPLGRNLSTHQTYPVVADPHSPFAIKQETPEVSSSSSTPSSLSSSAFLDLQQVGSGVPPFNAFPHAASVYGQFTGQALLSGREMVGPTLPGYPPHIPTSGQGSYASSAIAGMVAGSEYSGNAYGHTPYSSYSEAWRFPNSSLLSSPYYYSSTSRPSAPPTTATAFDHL
# Chain of FAD-linked sulfhydryl oxidase ALR (P55789 whole entry): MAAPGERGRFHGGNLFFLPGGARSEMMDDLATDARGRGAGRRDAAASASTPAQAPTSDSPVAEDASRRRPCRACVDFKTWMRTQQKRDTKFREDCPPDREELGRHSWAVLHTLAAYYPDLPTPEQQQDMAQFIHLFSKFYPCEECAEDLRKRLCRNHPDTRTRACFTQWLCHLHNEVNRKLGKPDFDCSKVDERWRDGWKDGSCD
compound,measurement,setting,value
Cc1ccc(S(=O)(=O)Nc2ccc3c(c2)C(=O)N([C@@H](C)CO)C[C@@H](C)[C@H](CN(C)S(=O)(=O)c2ccc(Cl)cc2)OCCCC[C@@H](C)O3)cc1,AC50,Paired box protein Pax-8,4.47 µM (active)
C=CCn1c(=S)[nH]c2sc3c(c2c1=O)CCC3,IC50,Leucine aminopeptidase,46.2 µM (active)
N#C/C(=C/c1cccc(C(F)(F)F)c1)c1nc(CCN2C(=O)c3ccccc3C2=O)cs1,EC50,[1],> 195 µM (not active)
S=C(Nc1ccccn1)c1ccccn1,EC50,[2],5.48 µM (active)
same,EC50,[3],5.37 µM (active)
CCOC(=O)c1sc(NC(=O)c2cc(-c3ccc(C)cc3)nc3ccccc23)c(C#N)c1C,EC50,[2],9.45 µM (active)
same,EC50,[3],10.5 µM (active)
Cc1cccc(C)c1Nc1nnc(SC(C)C(=O)Nc2c(C)n(C)n(-c3ccccc3)c2=O)s1 (centres undefined),IC50,Leucine aminopeptidase,13.5 µM (active)
C[C@@H]1CCCCO[C@@H](CN(C)Cc2ccc(C(F)(F)F)cc2)[C@@H](C)CN([C@@H](C)CO)C(=O)c2cc(NS(=O)(=O)c3ccc(F)cc3)ccc2O1,AC50,Paired box protein Pax-8,8.7 µM (active)
CCCN1Cc2cccc(C(=O)N3CCN(c4ccc(OC)cc4)CC3)c2C1=O,EC50,[1],> 195 µM (not active)
O=C(N/N=C/c1ccsc1)c1cc(-c2cccs2)nc2ccccc12,AC50,Paired box protein Pax-8,51.8 µM (active)
Cc1ccc(S(=O)(=O)N[C@@H]2C=C[C@@H](CC(=O)N3CCC(Cc4ccccc4)CC3)O[C@@H]2CO)cc1,AC50,Paired box protein Pax-8,13.3 µM (active)
CCn1c2ccccc2c2cc(NC(=O)CNCc3ccccc3OC)ccc21,EC50,[4],4.21 µM (active)
same,EC50,BJ [5],7.54 µM (inconclusive)
same,EC50,BJ [6],> 150 µM (inconclusive)
same,EC50,BJ [7],41.6 µM (inconclusive)
O=C(O)c1cccc(CN2C(=O)SC(Nc3ccccc3)C2=O)c1 (centres undefined),IC50,Leucine aminopeptidase,34.3 µM (active)
COc1ccc(-c2cc(-c3ccccc3)c(C#N)c(S(C)(=O)=O)n2)cc1,EC50,[2],7.91 µM (active)
same,EC50,[3],5.07 µM (active)
same,AC50,Paired box protein Pax-8,6.98 µM (active)
c1ccc(-c2nnc(Sc3ncnc4c3cnn4-c3ccccc3)[nH]2)cc1,IC50,Leucine aminopeptidase,64.8 µM (active)
CC(=O)Nc1nn(C)c2nc(C)cc(C)c12,EC50,[1],> 195 µM (not active)
CN1CCN(c2nc(-c3ccc(C(C)(C)C)cc3)nc3ccccc23)CC1,EC50,[1],0.328 µM (active)
O=C(CSc1ncccc1C(=O)O)NCCC1=CCCCC1,IC50,Leucine aminopeptidase,29.2 µM (active)
CC1CC(=O)Nc2cc([N+](=O)[O-])ccc2N1 (centres undefined),EC50,[1],> 195 µM (not active)
CC1SCC(=O)N(CC(=O)Nc2ccc3c(c2)OCO3)C1=O (centres undefined),IC50,Leucine aminopeptidase,29.4 µM (active)
Cc1cnc(C(=O)Nc2ccccc2-n2cccc2)cn1,EC50,[1],> 195 µM (not active)
CC(C)CCNC(=O)CN(C(=O)CCC(=O)Nc1nccs1)c1ccc2c(c1)OCCO2,EC50,[1],5.9 µM (active)
Cc1cccc(NC(=O)Cn2cnc3c(cnn3-c3ccc(F)cc3)c2=O)c1C,EC50,[2],6.93 µM (active)
same,EC50,[3],14.2 µM (active)
COc1ccc(C(C)N2CC34C=CC(O3)C(C(=O)O)C4C2=O)cc1 (centres undefined),EC50,[1],> 195 µM (not active)
Nc1ccn([C@@H]2O[C@H](CNCC3=CCOc4ccc(O)cc43)[C@@H](O)[C@H]2O)c(=O)n1,IC50,[8],92.4 µM (active)
C/C(N)=C(/C#N)C(=O)COC(=O)c1cc(-c2ccc(Br)cc2)nc2ccccc12,EC50,Streptococcus,18.7 µM (active)
same,EC50,[2],25 µM (active)
same,EC50,[3],24.9 µM (active)
same,EC50,Streptokinase A,4.43 µM (active)
same,EC50,[9],11.9 µM (active)
Cc1cccc(CN2CCN(Cc3ccco3)CC2)c1,IC50,[8],87.2 µM (active)
NS(=O)(=O)c1ccc(CN=C(S)NC2CCCCC2)cc1,EC50,[1],> 195 µM (not active)
Nc1nnc(Nc2ccc(Cl)cc2)[nH]1,AC50,[10],4.22 µM (active)
same,IC50,Leucine aminopeptidase,6.6 µM (active)
N#C[C@H]1[C@H](c2ccc(C#CC3CCCCC3)cc2)[C@H](CO)N1C(=O)Nc1ccc(F)cc1,AC50,Paired box protein Pax-8,20.8 µM (active)
CCOc1cc(/C=N/NC(=O)c2ccccc2-n2cccc2)ccc1O,IC50,[8],46.2 µM (active)
c1ccc(-c2nc3ccccc3c3nncn23)cc1,EC50,[1],> 195 µM (not active)
CCOc1cc(CNCCO)cc(Br)c1OCc1ccc(Cl)cc1Cl,AC50,[11],6.75 µM (active)
same,EC50,[2],4.89 µM (active)
same,EC50,[3],4.69 µM (active)
O=C(N/N=C/c1ccc(O)cc1)c1csc2c1CCCC2,IC50,[8],51.6 µM (active)
COc1ccc(NC(C)=O)cc1NC(=O)CN1CCN(CC(=O)Nc2ccccc2Cl)CC1,EC50,[1],> 195 µM (not active)
same,AC50,Cytochrome P450 2C9,20 µM (inconclusive)
COc1ccc2cc(OCC(=O)NNC(=O)Nc3ccc(F)cc3)ccc2c1,IC50,[8],65 µM (active)
COc1ccc(/C=N/NC(=O)c2ccc(CSc3nc(C)cc(C)n3)cc2)cc1O,IC50,[8],114 µM (active)
COc1ccc(/C=N/NC(=O)c2cccc(S(=O)(=O)N3CCCC3)c2)cc1O,IC50,[8],57.5 µM (active)
Cc1ccc(S(=O)(=O)N2CCN(CCNC(=O)C(=O)NCc3ccccc3)CC2)cc1,EC50,[1],> 195 µM (not active)

# Source: ChEMBL document CHEMBL1201862, “PubChem BioAssay data set” (2004)
